Legend:
[1] = target: T1, TYK2(JH2domain-pseudokinase) (Homo sapiens, UniProt P29597); assay: KinomeScan; assay type: binding; conditions: read-out: % Control
T1 construct: TYK2(JH2domain-pseudokinase); purchased DiscoveRx

[2] = target: T2, KIT(V559D, V654A) (Homo sapiens, UniProt P10721, V559D/V654A); assay: KinomeScan; assay type: binding; conditions: read-out: % Control
T2 construct: purchased DiscoveRx

[3] = target: T3, ADRA1D (Homo sapiens, UniProt P25100); assay: GPCR Profiler; assay type: cell-based
T3 construct: host or cells: Chem-1 cells with promiscuous Gα15

[4] = target: T4, GPR39 (Homo sapiens, UniProt O43194); assay: GPCR Profiler; assay type: cell-based
T4 construct: host or cells: Chem-1 cells expressing Gα15

[5] = target: T5, DLK (Homo sapiens, UniProt Q12852); assay: KinomeScan; assay type: binding; conditions: read-out: % Control
T5 construct: purchased DiscoveRx (Fremont, CA), KinomeScan service

[6] = target: T6, 5-HT2A (Homo sapiens, UniProt P28223); assay: GPCR Profiler; assay type: cell-based
T6 construct: host or cells: Chem-1 cells with promiscuous Gα15
Experimental: (§1) GPCR profiling assays were performed by Millipore (St. Louis, MO) using in cells expressing Gα15, a promiscuous G protein that enhances GPCR coupling to downstream Ca2+ signaling pathways. KinomeScan was conducted by DiscoveRx (Fremont, CA).
(§2) To identify the target of OGM1, the molecule was profiled for binding in a panel of 442 kinases (KinomeScan™, DiscoveRx™) and assessed its activity against 158 GPCRs in a single-point assay in Chem-1 cells that uses a promiscuous Gα15 protein to trigger calcium flux (see Table 9 and Table 10, below). […] Table 9. KinomeScan (DiscoverRx) profiling of OGM1.

[7] = target: T7, PRP (Homo sapiens, UniProt P49683); assay: GPCR Profiler; assay type: cell-based
T7 construct: host or cells: Chem-1 cells with Gα15
Experimental: as §1, §2

[8] = target: T8, PRKR (Homo sapiens, UniProt P19525); assay: KinomeScan; assay type: binding; conditions: read-out: % Control
T8 construct: purchased DiscoveRx (Fremont, CA)

[9] = target: T9, CDK5 (Homo sapiens, UniProt Q00535); assay: KinomeScan; assay type: binding; conditions: read-out: % Control
T9 construct: purchased DiscoveRx (KinomeScan service)

[10] = target: T10, NPBW1 (Homo sapiens, UniProt P48145); assay: GPCR Profiler; assay type: cell-based
T10 construct: host or cells: Chem-1 cells expressing Gα15

[11] = target: T11, SIK (Homo sapiens, UniProt P57059); assay: KinomeScan; assay type: binding; conditions: read-out: % Control
T11 construct: purchased DiscoveRx (Fremont, CA)

[12] = target: T12, MEK4 (Homo sapiens, UniProt P45985); assay: KinomeScan; assay type: binding; conditions: read-out: % Control
T12 construct: purchased DiscoveRx (Fremont, CA)

[13] = target: CLK1 (Homo sapiens, UniProt P49759); assay: KinomeScan; assay type: binding; conditions: read-out: % Control
[14] = target: T13, ABL1(F317L)-nonphosphorylated (Homo sapiens, UniProt P00519, F317L); assay: KinomeScan; assay type: binding; conditions: read-out: % Control
T13 construct: purchased DiscoveRx

[15] = target: T14, DCAMKL2 (Homo sapiens, UniProt Q8N568); assay: KinomeScan; assay type: binding; conditions: read-out: % Control
T14 construct: purchased DiscoveRx (Fremont, CA), KinomeScan service

[16] = target: T15, KIT(V559D, T670I) (Homo sapiens, UniProt P10721, T670I/V559D); assay: KinomeScan; assay type: binding; conditions: read-out: % Control
T15 construct: purchased DiscoveRx

[17] = target: T16, EPHB1 (Homo sapiens, UniProt P54762); assay: KinomeScan; assay type: binding; conditions: read-out: % Control
T16 construct: purchased DiscoveRx (Fremont, CA)

[18] = target: T17, RIPK4 (Homo sapiens, UniProt P57078); assay: KinomeScan; assay type: binding; conditions: read-out: % Control
T17 construct: purchased DiscoveRx (Fremont, CA)

[19] = target: T18, CB1 (Homo sapiens, UniProt P21554); assay: GPCR Profiler; assay type: cell-based
T18 construct: host or cells: Chem-1 cells with promiscuous Gα15

[20] = test system: LPS-induced ALI; assay: LPS-induced acute lung injury; assay type: in vivo, mice; conditions: LPS 0.7 mg/kg intratracheally; compounds intraperitoneally
Text: PMN (polymorphonuclear neutrophils).

[21] = test system: Panc02; assay: Cell cycle analysis (propidium iodide flow cytometry); assay type: cell-based, mouse; conditions: 3 Gy radiation in combination with OGM
Experimental: Where appropriate, ANOVA, or student's T-test were conducted in PRISM. Chi squared T(X) was used for Liperfluo analysis. A value T(X)>4 implies that the two distributions are different with a p<0.01 (99% confidence). For drug interaction and therapeutic interaction, the coefficient of drug interaction (CDI) was calculated as follows: CDI=AB/(A×B). According to the impact of each group, AB is the value of combined treatment and A or B is the value of the single agent group to control group.
Both radiation and ferroptosis are known to induce G2/M arrest. Therefore, cells were treated with OGM2 and/or 3 Gy radiation. Media was then replaced, and cells were maintained for 24 hours. Cells were then trypsinized, pelleted, and fixed overnight in 70% Methanol at 4° C. Samples were then washed twice with cold PBS before being incubated with 10 mg/ml RNase A and 500 μg/ml propidium iodide in PBS in the dark for 30 minutes at room temperature. Cell cycle progression was determined by Flow cytometry using a LSR II from BD. FIG. 96A presents a cell cycle analysis of OGM2 treatment and irradiated Panc02 cells.

[22] = test system: A549; assay: Acid-induced Mucin-5AC production; assay type: cell-based, human; conditions: pH 6.4 buffered media, 24 hours
Experimental: Lung (A549) cells were plated in 6-well plates. The cells then were rinsed and protein was isolated. Dot blots were made with anti Mucin-5AC antibodies, and an equivalent amount of protein was run on a western blot to detect alpha tubulin. Lung (A549) cells were cultured as above, but in pH 6.4 buffered media with increasing concentrations of OGM2. Mucin5AC and alpha tubulin were detected in the same way.
In addition. A549 cells were cultured in pH 6.4 medium with or without OGM2 for 24 hours cells were then rinsed and then stained with Periodic Acid Staining solution which detects mucins. FIG. 30E is a schematic of cas9 mediated endogenous tagging of MU5AC genetic locus with nano-luciferase in A549 cells. For FIG. 30F, Muc5ac-Luc cells were cultured in pH 6.4 buffered medium with and without OGM2 for 24 hours. Cell lysates were then assayed for luciferase activity and normalized to untreated control. See results in FIG. 30F.

T6 sequence (P28223 whole entry): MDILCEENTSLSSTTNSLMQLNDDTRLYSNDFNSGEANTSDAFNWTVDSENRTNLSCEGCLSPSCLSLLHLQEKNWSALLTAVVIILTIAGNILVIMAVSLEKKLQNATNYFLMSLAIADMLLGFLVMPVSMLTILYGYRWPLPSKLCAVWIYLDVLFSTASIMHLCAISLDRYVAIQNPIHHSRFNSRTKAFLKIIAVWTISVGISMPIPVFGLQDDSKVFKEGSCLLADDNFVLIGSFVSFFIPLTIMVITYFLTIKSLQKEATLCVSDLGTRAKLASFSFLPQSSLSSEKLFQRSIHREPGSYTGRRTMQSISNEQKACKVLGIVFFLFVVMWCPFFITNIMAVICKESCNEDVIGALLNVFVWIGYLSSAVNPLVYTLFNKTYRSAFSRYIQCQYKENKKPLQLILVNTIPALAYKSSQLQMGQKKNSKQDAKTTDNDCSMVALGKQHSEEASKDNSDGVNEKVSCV
T7 sequence (P49683 whole entry): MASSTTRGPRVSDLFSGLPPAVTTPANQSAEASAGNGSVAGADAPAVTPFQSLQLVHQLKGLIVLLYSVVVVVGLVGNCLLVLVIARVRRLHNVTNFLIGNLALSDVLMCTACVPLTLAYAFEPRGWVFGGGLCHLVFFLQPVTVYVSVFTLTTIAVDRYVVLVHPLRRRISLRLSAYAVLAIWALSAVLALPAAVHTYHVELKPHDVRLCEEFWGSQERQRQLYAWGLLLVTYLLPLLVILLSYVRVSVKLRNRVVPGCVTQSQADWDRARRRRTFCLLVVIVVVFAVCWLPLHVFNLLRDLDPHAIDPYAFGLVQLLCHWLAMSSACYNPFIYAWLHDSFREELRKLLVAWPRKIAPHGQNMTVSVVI
T18 sequence (P21554 whole entry, species assumed): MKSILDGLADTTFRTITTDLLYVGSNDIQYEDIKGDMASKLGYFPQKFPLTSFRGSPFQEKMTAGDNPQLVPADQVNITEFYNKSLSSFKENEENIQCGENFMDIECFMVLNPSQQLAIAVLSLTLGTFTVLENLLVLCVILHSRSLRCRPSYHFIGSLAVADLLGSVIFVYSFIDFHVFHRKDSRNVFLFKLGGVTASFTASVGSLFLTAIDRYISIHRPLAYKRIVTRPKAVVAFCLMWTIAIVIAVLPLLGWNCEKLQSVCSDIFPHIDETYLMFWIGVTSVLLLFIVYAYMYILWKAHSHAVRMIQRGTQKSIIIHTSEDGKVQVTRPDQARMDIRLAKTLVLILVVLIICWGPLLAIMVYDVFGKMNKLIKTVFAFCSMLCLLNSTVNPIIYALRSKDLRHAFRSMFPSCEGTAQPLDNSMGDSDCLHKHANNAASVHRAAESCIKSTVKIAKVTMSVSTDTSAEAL
T10 sequence (P48145 whole entry): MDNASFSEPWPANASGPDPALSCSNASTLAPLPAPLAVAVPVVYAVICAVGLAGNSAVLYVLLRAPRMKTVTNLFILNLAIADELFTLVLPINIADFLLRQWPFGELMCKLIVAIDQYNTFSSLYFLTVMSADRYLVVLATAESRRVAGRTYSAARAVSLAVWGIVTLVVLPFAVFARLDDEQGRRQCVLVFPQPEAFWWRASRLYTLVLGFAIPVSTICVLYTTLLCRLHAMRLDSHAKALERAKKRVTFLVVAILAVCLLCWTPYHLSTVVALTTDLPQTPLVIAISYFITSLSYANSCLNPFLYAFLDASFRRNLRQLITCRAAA
T4 sequence (O43194 whole entry): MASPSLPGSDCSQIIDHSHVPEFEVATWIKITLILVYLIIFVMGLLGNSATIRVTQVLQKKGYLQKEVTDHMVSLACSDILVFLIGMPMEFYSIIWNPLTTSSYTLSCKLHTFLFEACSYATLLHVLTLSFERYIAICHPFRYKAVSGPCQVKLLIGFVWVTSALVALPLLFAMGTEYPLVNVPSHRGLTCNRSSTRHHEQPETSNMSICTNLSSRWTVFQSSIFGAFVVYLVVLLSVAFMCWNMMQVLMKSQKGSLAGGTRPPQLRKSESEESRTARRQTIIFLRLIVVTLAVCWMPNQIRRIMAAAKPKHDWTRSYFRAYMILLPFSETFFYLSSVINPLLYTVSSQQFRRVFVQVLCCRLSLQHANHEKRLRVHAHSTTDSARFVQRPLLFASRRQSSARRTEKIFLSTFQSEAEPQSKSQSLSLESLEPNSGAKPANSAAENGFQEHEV
T3 sequence (P25100 whole entry, species assumed): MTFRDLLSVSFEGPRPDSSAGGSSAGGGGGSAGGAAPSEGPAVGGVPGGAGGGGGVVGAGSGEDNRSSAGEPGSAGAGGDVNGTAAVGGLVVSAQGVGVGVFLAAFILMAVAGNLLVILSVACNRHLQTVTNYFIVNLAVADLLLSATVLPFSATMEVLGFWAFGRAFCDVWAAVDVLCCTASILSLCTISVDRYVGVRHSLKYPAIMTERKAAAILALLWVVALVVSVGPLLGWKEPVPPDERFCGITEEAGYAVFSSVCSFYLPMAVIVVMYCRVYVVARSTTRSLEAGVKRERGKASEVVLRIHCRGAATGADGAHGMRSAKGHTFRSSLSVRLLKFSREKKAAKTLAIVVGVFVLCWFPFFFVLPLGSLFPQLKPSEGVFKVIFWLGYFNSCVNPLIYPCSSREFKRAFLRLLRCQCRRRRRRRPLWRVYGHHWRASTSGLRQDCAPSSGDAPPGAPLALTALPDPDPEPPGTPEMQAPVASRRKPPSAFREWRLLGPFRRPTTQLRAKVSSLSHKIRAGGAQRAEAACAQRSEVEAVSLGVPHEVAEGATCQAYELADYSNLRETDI
T12 sequence (P45985 whole entry): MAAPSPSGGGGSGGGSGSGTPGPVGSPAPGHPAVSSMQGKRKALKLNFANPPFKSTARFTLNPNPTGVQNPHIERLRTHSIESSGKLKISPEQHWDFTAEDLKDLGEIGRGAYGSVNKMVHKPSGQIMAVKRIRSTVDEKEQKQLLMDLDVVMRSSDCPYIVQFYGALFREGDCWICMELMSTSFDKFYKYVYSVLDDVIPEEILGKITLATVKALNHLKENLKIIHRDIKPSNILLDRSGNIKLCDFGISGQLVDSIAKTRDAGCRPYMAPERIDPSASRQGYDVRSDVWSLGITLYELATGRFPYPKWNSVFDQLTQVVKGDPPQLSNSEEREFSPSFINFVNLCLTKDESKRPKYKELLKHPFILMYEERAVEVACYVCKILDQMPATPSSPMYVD
T13 sequence (P00519 242-493 F317L limits assumed): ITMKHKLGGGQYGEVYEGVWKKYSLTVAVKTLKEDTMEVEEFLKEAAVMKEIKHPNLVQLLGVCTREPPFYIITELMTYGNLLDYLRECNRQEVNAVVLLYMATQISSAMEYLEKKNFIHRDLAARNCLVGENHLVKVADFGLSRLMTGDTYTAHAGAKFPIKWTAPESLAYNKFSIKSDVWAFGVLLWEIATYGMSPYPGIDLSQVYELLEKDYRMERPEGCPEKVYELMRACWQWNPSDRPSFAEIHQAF
T5 sequence (Q12852 whole entry): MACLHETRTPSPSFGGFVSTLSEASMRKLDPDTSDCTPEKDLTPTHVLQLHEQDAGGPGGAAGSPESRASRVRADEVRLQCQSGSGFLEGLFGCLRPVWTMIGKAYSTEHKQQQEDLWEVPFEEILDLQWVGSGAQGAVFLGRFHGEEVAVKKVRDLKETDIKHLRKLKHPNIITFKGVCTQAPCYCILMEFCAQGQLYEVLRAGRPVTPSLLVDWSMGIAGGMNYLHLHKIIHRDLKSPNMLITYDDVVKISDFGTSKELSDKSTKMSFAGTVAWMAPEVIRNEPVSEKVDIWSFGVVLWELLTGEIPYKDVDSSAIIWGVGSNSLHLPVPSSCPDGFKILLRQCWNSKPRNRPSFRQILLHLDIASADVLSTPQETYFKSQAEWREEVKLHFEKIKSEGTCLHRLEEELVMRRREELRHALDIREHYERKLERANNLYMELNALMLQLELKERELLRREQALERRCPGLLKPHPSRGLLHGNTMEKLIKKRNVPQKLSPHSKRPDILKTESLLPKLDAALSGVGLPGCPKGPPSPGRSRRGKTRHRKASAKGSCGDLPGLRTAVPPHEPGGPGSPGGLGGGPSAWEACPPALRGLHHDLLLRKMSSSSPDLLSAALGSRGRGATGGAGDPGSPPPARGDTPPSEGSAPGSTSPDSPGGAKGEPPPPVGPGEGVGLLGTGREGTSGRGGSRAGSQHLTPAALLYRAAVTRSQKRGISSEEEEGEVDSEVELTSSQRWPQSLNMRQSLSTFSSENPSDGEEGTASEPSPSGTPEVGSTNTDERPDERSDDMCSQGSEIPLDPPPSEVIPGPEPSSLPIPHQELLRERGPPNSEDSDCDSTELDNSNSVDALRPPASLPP
T8 sequence (P19525 whole entry): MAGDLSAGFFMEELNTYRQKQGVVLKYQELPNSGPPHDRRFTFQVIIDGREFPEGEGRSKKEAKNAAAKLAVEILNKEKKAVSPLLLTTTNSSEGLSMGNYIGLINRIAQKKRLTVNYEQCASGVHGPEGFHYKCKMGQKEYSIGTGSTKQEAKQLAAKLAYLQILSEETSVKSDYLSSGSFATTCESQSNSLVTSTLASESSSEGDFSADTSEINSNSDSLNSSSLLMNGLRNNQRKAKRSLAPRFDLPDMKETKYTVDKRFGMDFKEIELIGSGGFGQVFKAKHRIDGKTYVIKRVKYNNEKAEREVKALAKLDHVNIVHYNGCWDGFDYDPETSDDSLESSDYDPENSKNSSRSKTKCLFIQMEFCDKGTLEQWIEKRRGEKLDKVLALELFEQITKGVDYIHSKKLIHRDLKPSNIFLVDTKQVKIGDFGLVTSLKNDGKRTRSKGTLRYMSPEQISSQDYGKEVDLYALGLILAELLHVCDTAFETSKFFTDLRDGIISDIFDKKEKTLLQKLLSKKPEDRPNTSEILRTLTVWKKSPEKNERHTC

CCc1ccc2c(c1)C1(NN=C(c3cccc4ccccc34)S1)C(=O)N2 (centres unmarked) [OGM1, 5-ethyl-5′-naphthalen-1-ylspiro[1H-indole-3,2′-3H-1,3,4-thiadiazole]-2-one]
remaining binding at 10 µM [1]: 100%
remaining binding at 10 µM [2]: 100%
Antagonism ([3]; 10 uM): −5.7
Agonism ([3]; 12.5 uM): 0.8
Antagonism ([4]; 10 uM): 5.4
Agonism ([4]; 12.5 uM): 0
remaining binding at 10 µM [5]: 40%
Antagonism ([6]; 10 uM): −12.3
Agonism ([6]; 12.5 uM): 1.2
Antagonism ([7]; 10 uM): −11.1
Agonism ([7]; 12.5 uM): −0.3
remaining binding at 10 µM [8]: 59%
remaining binding at 10 µM [9]: 100%
Antagonism ([10]; 10 uM): 22.8
Agonism ([10]; 12.5 uM): 0.5
remaining binding at 10 µM [11]: 95%
remaining binding at 10 µM [12]: 100%
remaining binding at 10 µM [13]: 100%
remaining binding at 10 µM [14]: 96%
remaining binding at 10 µM [15]: 100%
remaining binding at 10 µM [16]: 77%
remaining binding at 10 µM [17]: 100%
remaining binding at 10 µM [18]: 81%
Antagonism ([19]; 10 uM): −6.8
Agonism ([19]; 12.5 uM): −0.1

CCc1ccc2c(c1)C1(NN=C(c3ccccc3)S1)C(=O)N2 (centres unmarked) [OGM2]
inflammatory cell infiltrates in BAL [20]: reduced inflammatory cell infiltrates in BAL
coefficient of drug interaction (CDI), G2 phase fraction [21]: 0.689
increase in the G2 phase fraction [21]: 120%
Mucin production [22]: inhibits Mucin production

Reference: patent US20240327364A1, “THERAPEUTIC TARGETING OF GPR68 TO INDUCE FERROPTOSIS” (University Of Maryland, Baltimore, priority 2023, published 2024)
